From ChEMBL document CHEMBL2010796, “Systematic structure modifications of imidazo[1,2-a]pyrimidine to reduce metabolism mediated by aldehyde oxidase (AO)” (J Med Chem, 2011)
Blank lines part the entries; values can stand above or below the molecule they belong to. Calls of active or inactive are those of the source. The rule behind the calls is not given here.

Key:
[1] = Plasma clearance in rat; type: ADME, organism-based
[2] = Half life in rat; type: ADME, organism-based; conditions: in vivo
[3] = Oral bioavailability in rat; type: ADME, organism-based; conditions: in vivo
[4] = Kinetic solubility in water; type: physicochemical; conditions: read-out: Kinetic_solubility
[5] = Drug metabolism in human liver microsomes assessed as CYP450-mediated oxidation; type: ADME, Microsome
[6] = biological target: T1, Androgen receptor (Homo sapiens) (UniProt P10275); experiment: Antagonist activity at human androgen receptor expressed in LNAR cells assessed as inhibition of […]-induced luciferase activity by reporter gene assay; type: functional, cell-based
T1 sequence (whole entry): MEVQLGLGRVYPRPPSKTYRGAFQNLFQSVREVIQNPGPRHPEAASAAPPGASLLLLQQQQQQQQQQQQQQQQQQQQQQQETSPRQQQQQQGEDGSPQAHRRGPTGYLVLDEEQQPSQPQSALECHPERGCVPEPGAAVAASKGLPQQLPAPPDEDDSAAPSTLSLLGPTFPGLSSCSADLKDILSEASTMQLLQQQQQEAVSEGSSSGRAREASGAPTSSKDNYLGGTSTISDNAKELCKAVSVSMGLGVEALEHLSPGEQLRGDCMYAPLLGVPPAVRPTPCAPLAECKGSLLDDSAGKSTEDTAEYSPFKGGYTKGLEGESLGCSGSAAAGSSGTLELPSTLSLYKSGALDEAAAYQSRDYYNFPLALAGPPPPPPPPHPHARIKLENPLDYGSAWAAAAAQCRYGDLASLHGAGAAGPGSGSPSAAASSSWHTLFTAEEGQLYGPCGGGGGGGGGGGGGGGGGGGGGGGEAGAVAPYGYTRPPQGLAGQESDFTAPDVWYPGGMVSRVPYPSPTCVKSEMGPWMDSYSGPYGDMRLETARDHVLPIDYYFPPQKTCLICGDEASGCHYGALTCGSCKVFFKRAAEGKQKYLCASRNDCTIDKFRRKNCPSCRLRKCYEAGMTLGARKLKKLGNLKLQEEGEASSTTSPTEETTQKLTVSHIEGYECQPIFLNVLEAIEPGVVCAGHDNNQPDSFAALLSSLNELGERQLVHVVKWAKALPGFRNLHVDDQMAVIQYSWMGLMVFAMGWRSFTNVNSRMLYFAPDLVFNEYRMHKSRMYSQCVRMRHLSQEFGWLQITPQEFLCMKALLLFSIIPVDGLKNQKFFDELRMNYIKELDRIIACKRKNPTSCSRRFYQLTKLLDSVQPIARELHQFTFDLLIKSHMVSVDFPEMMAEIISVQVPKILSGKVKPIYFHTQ

Structure (SMILES): Cc1nc(O[C@H]2C(C)(C)[C@H](NC(=O)c3cnc4ccccn34)C2(C)C)ccc1C#N
- solubility kinetic [4]: < 0.4 µM
- Drug metabolism [5]: Active

Structure (SMILES): CC1(C)[C@H](NC(=O)c2cnc3ncccn23)C(C)(C)[C@H]1Oc1ccc(C#N)c(Cl)c1
- inhibition [6]: Active

Structure (SMILES): CC1(C)[C@H](NC(=O)c2cnc3ncccn23)C(C)(C)[C@H]1Oc1ccc(C#N)c(C#N)c1
- inhibition [6]: Active

Next, values leading:

- clearance [1]: 11.6 mL/min/kg
- half-life [2]: 3.6 h
- bioavailability [3]: 31%
Structure (SMILES): Cc1nc(O[C@H]2C(C)(C)[C@H](NC(=O)c3cnc4ncccn34)C2(C)C)ccc1C#N

- inhibition [6]: Active
Structure (SMILES): COc1nc(O[C@H]2C(C)(C)[C@H](NC(=O)c3cnc4ncccn34)C2(C)C)ccc1C#N
